Where two headings read alike, the source gives them in different places.
What was measured:
[1] = tested on: HEK293T cells; assay: HEK293T cytotoxicity; settings: for HEK293T Cytotoxicity, half-maximal cytotoxicity concentration: HEK293T cells
Description: A previously described method was utilized to evaluate cytotoxicity against HepG2 and HEK293T cells as a measure of general human toxicity. Assay data generated for Plasmodium was analyzed with a Genedata Screener (v13.0-Standard). Inhibitors (puromycin for cytotoxicity and atovaquone for liver-stage parasites) were subtracted from neutral controls to normalize data. The Smart Fit function of the Genedata Analyzer generated dose-response curves that were used to calculate the half-maximal effective concentrations (EC50).

[2] = tested on: liver-stage P. berghei (Pb-Luc sporozoites in HepG2 cells); assay: microbe, parasite or virus in culture; format: cell-based, Plasmodium berghei; settings: read-out: Liver-Stage P. berghei half-maximal effective concentration (EC50)
Description: Activity against liver-stage P. berghei was quantified for extracts, fractions, and pure compounds using a slightly modified 48 h luminescence-based assay. The salivary gland of infected Anopheles stephensi was dissected to harvest P. berghei-ANKA-GFP-LucSMCON (Pb-Luc) sporozoites (originally received from Dr. Ana Rodriguez of NYU School of Medicine; last round of testing to evaluate pure 1, 3–5 used infected mosquitoes from Elizabeth Winzeler at UCSD and Dennis Kyle at UGA) which were filtered through a 20 μm nylon net filter twice (Steriflip, Millipore, MA), counted with a hemocytometer, and adjusted to achieve a final concentration of 200 sporozoites/1 μL in the assay media (DMEM without Phenol Red (Life Technologies, CA), 5% FBS, and 5 × Pen−Strep and glutamine (Life Technologies, CA)). A Multi-Flo (BioTek, VT) with a 1 μL cassette was used to transfer purified sporozoites, 1 × 10^3 sporozoites per well (5 μL), to assay plates containing HepG2 cells. After incubation at 37 °C for 48 h, a bioluminescence measurement was taken to assess the liver-stage growth. More specifically, media was removed by inverting the plates, and spinning them at 150 × g for 30 s, and 2 μL per well of BrightGlo (Promega, WI) was added for quantification of Pb-Luc viability. The luminescence was measured immediately after addition of the luminescence reagent using an Envision Multilabel Reader (PerkinElmer, MA).

[3] = tested on: asexual blood-stage P. falciparum strain Dd2L; assay: asexual blood-stage P. falciparum assay with SYBR Green detection; format: cell-based, Plasmodium falciparum; settings: for blood-stage antimalarial activity (in words): P. falciparum; for EC50: Plasmodium falciparum, 72 h
Description: A standard method for evaluating antimalarial activity with asexual blood-stage P. falciparum and SYBR Green detection was used to assess the potency of extracts, fractions, and compounds [50]. Screening media was prepared from complete media supplemented with 0.05% Albumax II (but without human serum). Dr. David Fidock of Columbia University provided P. falciparum strain Dd2L, which was cultured with fresh O+ erythrocytes (TSRI Normal Blood Donation). Compounds were transferred to assay plates using a Labcyte ECHO acoustic liquid handler. Fresh and parasitized erythrocytes were prepared in screening media before inoculating plates (Multi-Flo; BioTek, VT) with a final hematocrit of 2.5% and a final parasitemia of 0.3%. The assay plates were incubated for 72 h in a chamber at 37 °C with a low oxygen gas formulation with daily gas exchanges. After incubation, a Multi-Flo liquid dispenser transferred SYBR Green lysis buffer to the wells, and the plates were incubated for another 24 h at room temperature to achieve optimal development of fluorescence signal, which was read by an Envision Multimode Reader (PerkinElmer, MA).

[4] = target: T1, rabbit muscle actin (Oryctolagus cuniculus, UniProt P68135); assay: actin polymerization assay (pyrene-labeled rabbit muscle actin); format: biochemical
T1 construct: purchased Abcam ab239724
Text: Of the proteins predicted to bind to kakeromamide (1), actin and sortilin were deemed worthy of further evaluation given their higher predicted binding values. However, no in vitro sortilin assay is available. In contrast, actin polymerization assays are frequently employed to assess agents that affect actin dynamics, albeit using mammalian homologs of actin. Since 1 was predicted to bind to both Plasmodium and mammalian actin proteins but only mammalian actin assays are commercially available, an actin polymerization assay that uses pyrene-labeled rabbit muscle actin was employed. Several natural products are known to disrupt actin’s function by either inhibiting or stabilizing polymerization, which could arise from ligand binding. Since apicomplexan actins (including those of Plasmodium) and mammalian actins are relatively divergent, Plasmodium actin might be a useful molecular target. […] Similar activity by 1 could be one possible explanation for the observed increase in actin polymerization with increasing concentrations of 1. Although 1 appears to impact mammalian actin polymerization, future tests evaluating the impact of 1 on Plasmodium actin function would be worthwhile in order to further elucidate whether interactions with actin are relevant to this natural product’s mechanism of action on the malaria parasite.
The computationally predicted binding of 1 to actin was experimentally evaluated using a rabbit muscle actin polymerization assay kit from Abcam (kit ab239724) using the manufacturer’s protocol. Mean signal for n = 3 (actin polymerization control, solvent control, and background) or n = 2 (four different concentrations of latrunculin A and kakeromamide B) replicates was acquired for time points taken every 30 s for 1 h on a Synergy H4 plate reader. The results were plotted in GraphPad Prism 8 with an exponential plateau curve.

[5] = tested on: HepG2 cells; assay: HepG2 cytotoxicity; format: cell-based, human; settings: for HepG2 Cytotoxicity, half-maximal cytotoxicity concentration: HepG2 cells
Description: A previously described method was utilized to evaluate cytotoxicity against HepG2 and HEK293T cells as a measure of general human toxicity [52]. Assay data generated for Plasmodium was analyzed with a Genedata Screener (v13.0-Standard). Inhibitors (puromycin for cytotoxicity and atovaquone for liver-stage parasites) were subtracted from neutral controls to normalize data. The Smart Fit function of the Genedata Analyzer generated dose-response curves that were used to calculate the half-maximal effective concentrations (EC50).

[6] = Plasmodium berghei, HepG2, 48 h, sporozoites from University of California San Diego (UCSD), 48 h
[7] = Plasmodium berghei, HepG2, 48 h, sporozoites from the University of Georgia (UGA), 48 h
[8] = read-out: Blood-Stage P. falciparum half-maximal effective concentration (EC50), asexual blood-stage, strain Dd2L, 72 h, SYBR Green
[9] = Plasmodium berghei, HepG2, 48 h

SMILES: O=C1C(O)=C([C@H]2CC[C@H](c3ccc(Cl)cc3)CC2)C(=O)c2ccccc21 [Atovaquone, reference compound]
- HEK293T Cytotoxicity, half-maximal cytotoxicity concentration [1]: >2.0 µM
- EC50 [2, 6]: 0.0037 µM
- EC50 [2, 7]: 0.0017 µM
- EC50 ([2]; Plasmodium berghei, HepG2, 48 h, sporozoites sourced from New York University (NYU) School of Medicine, 48 h): < 0.00028 µM

SMILES: CCCCCC1NC(=O)c2csc(n2)C(C)NC(=O)C(Cc2ccc(OC)cc2)N(C)C(=O)C(Cc2ccc(OC)cc2)N(C)C(=O)C(C(C)C)NC(=O)C1C (stereo not shown) [Compound 1, kakeromamide B]
- blood-stage antimalarial activity (in words) [3]: only moderately active
- EC50 [3, 8]: 8.9 µM
- effect on mammalian actin polymerization (in words) ([4]; dose dependence): stimulated actin polymerization in a dose-dependent manner
- effect on actin polymerization relative to controls ([4]; highest tested concentration, 25 µM, Figure S23): enhancing actin polymerization
- effect on actin polymerization relative to controls ([4]; lowest tested concentration, 0.025 µM, Figure S23): moderately suppressed polymerization
- HepG2 Cytotoxicity, half-maximal cytotoxicity concentration [5]: >23 µM
- cytotoxicity against HepG2 / human liver cells (in words) ([5]; HepG2 human cell line): did not exhibit toxicity
- HEK293T Cytotoxicity, half-maximal cytotoxicity concentration [1]: >23 µM
- cytotoxicity against HEK293T (in words) ([1]; HEK293T human cell line): did not exhibit toxicity
- EC50 [2, 6]: > 12 µM
- EC50 [2, 7]: 11 µM

SMILES: CCC[C@H]1NC(=O)c2csc(n2)[C@H](C)NC(=O)[C@H](C(C)C)N(C)C(=O)[C@H](Cc2ccccc2)N(C)C(=O)[C@H](C)OC(=O)[C@@H]1C [Compound 2, ulongamide A]
- EC50 ([3]; read-out: Blood-Stage P. falciparum half-maximal effective concentration (EC50)): 0.99 µM
- HEK293T Cytotoxicity, half-maximal cytotoxicity concentration [1]: >4.8 µM
- EC50 [2, 9]: > 4 µM

SMILES: CC[C@H](C)[C@@H]1NC(=O)CNC(=O)c2csc(n2)[C@H](C(C)(C)O)OC(=O)C(C)(C)[C@H](CCCC(C)(Cl)Cl)OC(=O)c2csc1n2 [Compound 3, lyngbyabellin A]
- EC50 [3, 8]: 0.0015 µM
- HepG2 Cytotoxicity, half-maximal cytotoxicity concentration [5]: 3.3 µM
- selectivity index for Plasmodium versus HepG2 ([5]; blood-stage P. falciparum versus human liver carcinoma cells (HepG2)): 2,200
- HEK293T Cytotoxicity, half-maximal cytotoxicity concentration [1]: 19 µM
- selectivity index for Plasmodium versus HEK293T ([1]; blood-stage P. falciparum versus normal kidney epithelial cells (HEK293T)): 13,000
- EC50 [2, 9]: > 10 µM
- EC50 ([2]; sporozoites from University of California San Diego (UCSD), 48 h): > 10 µM

SMILES: CO[C@@H]1[C@@H](OC)[C@H](C)O[C@@H](O[C@@H]2C[C@@H]3CC[C@H](C)[C@@H](O)C[C@](C)(CC/C=C/C=C/Br)OC(=O)C[C@](O)(C2)O3)[C@@H]1OC [Compound 4, 18E-lyngbyaloside C]
- blood-stage antimalarial activity (in words) [3]: inactive
- EC50 [3, 8]: > 19 µM
- HepG2 Cytotoxicity, half-maximal cytotoxicity concentration [5]: 17 µM
- HEK293T Cytotoxicity, half-maximal cytotoxicity concentration [1]: >31 µM
- EC50 [2, 6]: > 16 µM
- EC50 [2, 7]: 7.1 µM

SMILES: CO[C@@H]1[C@@H](OC)[C@H](C)O[C@@H](O[C@@H]2C[C@H]3O[C@@](O)(C2)[C@H](C)C(=O)O[C@@H](/C=C/C=C/Br)C[C@@H](C)/C=C\C[C@H](O)[C@@H]3C)[C@@H]1OC [Compound 5, lyngbyaloside]
- blood-stage antimalarial activity (in words) [3]: inactive
- EC50 [3, 8]: > 7.9 µM
- HepG2 Cytotoxicity, half-maximal cytotoxicity concentration [5]: >13 µM
- HEK293T Cytotoxicity, half-maximal cytotoxicity concentration [1]: >13 µM
- EC50 [2, 6]: > 6.3 µM
- EC50 [2, 7]: 4.5 µM

SMILES: CC1(C)c2nc(-c3ccc(F)cc3)c(Nc3ccc(F)cc3)n2CCN1C(=O)CN [ganaplacide, reference compound]
- EC50 [3, 8]: 0.0059 µM

SMILES: C/C1=C/C(=O)O[C@@H]2C[C@@H](CC[C@H](C)/C=C\C=C\CC1)O[C@@](O)([C@@H]1CSC(=O)N1)C2 [latrunculin A, reference compound]
- concentrations at which actin polymerization was suppressed ([4]; Figure S23): above 1.2 µM

SMILES: OC(c1cc(C(F)(F)F)nc2c(C(F)(F)F)cccc12)C1CCCCN1 (stereo not shown) [mefloquine, reference compound]
- EC50 [3, 8]: 0.0029 µM
